Converted amounts (≈) assume the structure as drawn. Read-outs that look alike come from different tables or passages of the source.
Key:
Experiment in all cases: MIC, agar dilution test (Denley multipoint inoculator; Iso-sensitest agar)
Type in all cases: cell-based
[1] = test system: Enterococcus faecalis 27101; conditions: read-out: MIC values
Procedure: (§1) The minimum inhibitory concentrations (MIC) were determined by the series dilution method on Iso-Sensitest agar (Oxoid). For each test substance, a series of agar plates which contained concentrations of the active compound which decreased by a dilution factor of two each time was prepared. The agar plates were inoculated with a multipoint inoculator (Denley). Overnight cultures of the pathogens which had first been diluted so that each inoculation point contained about 10^4 colony-forming particles were used for the inoculation. The inoculated agar plates were incubated at 37° C. and the germ growth was read off after about 20 hours. The MIC value (μg/ml) indicates the lowest active compound concentration at which no germ growth was to be detected with the naked eye.
(§2) The MIC values of some of the compounds according to the invention are shown in comparison with ciprofloxacin in the following table.
(§3) MIC values (mg/l) determined by the agar dilution
(§4) test (Denley multipoint inoculator; Iso-sensitest agar)

[2] = test system: Enterococcus faecalis 9790; conditions: read-out: MIC values
Procedure: as §1, §2, §3, §4

Escherichia coli Neumann = conditions: 37° C., about 20 hours, about 10^4 colony-forming particles
Procedure: as §1, §2, §3, §4

Morganella morganii 932 = conditions: 37° C., about 20 hours, about 10^4 colony-forming particles
Procedure: as §1, §2, §3, §4

Proleus mirabilis 8223 = conditions: 37° C., about 20 hours, about 10^4 colony-forming particles
Procedure: as §1, §2, §3, §4

Proleus vulgaris 1017 = conditions: 37° C., about 20 hours, about 10^4 colony-forming particles
Procedure: as §1, §2, §3, §4

[3] = test system: Providencia stuartei 12052; conditions: 37° C., about 20 hours, about 10^4 colony-forming particles
Procedure: as §1, §2, §3, §4

[4] = test system: Staphylococcus aureus 133; conditions: read-out: MIC values
Procedure: as §1, §2, §3, §4

[5] = test system: Staphylococcus aureus 1756; conditions: read-out: MIC values
Procedure: as §1, §2, §3, §4

[6] = test system: Staphylococcus aureus FK 422; conditions: read-out: MIC values
Procedure: as §1, §2, §3, §4

[7] = Enterococcus faecalis 27101, 37° C., about 20 hours, about 10^4 colony-forming particles
[8] = Enterococcus faecalis 9790, 37° C., about 20 hours, about 10^4 colony-forming particles
[9] = Staphylococcus aureus 133, 37° C., about 20 hours, about 10^4 colony-forming particles
[10] = Staphylococcus aureus 1756, 37° C., about 20 hours, about 10^4 colony-forming particles
[11] = FK422, Staphylococcus aureus FK 422, 37° C., about 20 hours, about 10^4 colony-forming particles

SMILES | MIC [1, 7] [µg/mL] | MIC [2, 8] [µg/mL] | MIC (Escherichia coli Neumann) [µg/mL] | MIC (Morganella morganii 932) [µg/mL] | MIC (Proleus mirabilis 8223) [µg/mL] | MIC (Proleus vulgaris 1017) [µg/mL] | MIC [3] [µg/mL] | MIC [4, 9] [µg/mL] | MIC [5, 10] [µg/mL] | MIC [6, 11] [µg/mL] | MIC ([1]; Enterococcus faecalis, 27101, 20 h) [µg/mL] | MIC ([2]; Enterococcus faecalis, 9790, 20 h) [µg/mL] | MIC ([4]; Staphylococcus aureus, 133, 20 h) [µg/mL] | MIC ([5]; Staphylococcus aureus, 1756, 20 h) [µg/mL] | MIC ([6]; Staphylococcus aureus, FK422, 20 h) [µg/mL]
CO[C@@H]1CN(c2cc3c(cc2F)c(=O)c(C(=O)O)cn3C2CC2)C[C@H]1N.Cl (relative stereo) [Example 2, 7-(trans-3-Amino-4-methoxy-1-pyrrolidinyl)-1-cyclopropyl-6-fluoro-4-oxo-3-quinolinecarboxylic acid hydrochloride] | – | 0.5 | ≤ 0.015 | 0.03 | 4 | 0.125 | 4 | 0.125 | 0.125 | 0.125 | – | – | – | – | –
O=C(O)c1cn(C2CC2)c2cc(N3CCNCC3)c(F)cc2c1=O [Ciprofloxacin, ciprofloxacin, reference compound] | – | – | ≤ 0.015 | ≤ 0.015 | 1 (≈ 3.02 µM) | ≤ 0.015 | 4 (≈ 12.1 µM) | – | – | – | 0.05 (≈ 0.151 µM) | 0.25 (≈ 0.754 µM) | 0.25 (≈ 0.754 µM) | 0.25 (≈ 0.754 µM) | 0.25 (≈ 0.754 µM)
O=C(O)c1cn(C2CC2)c2c(F)c(N3CC4NCCOC4C3)c(F)cc2c1=O (stereo not shown) [Example 8, 1-cyclopropyl-6,8-difluoro-1,4-dihydro-7-(2-oxa-5,8-diazabicyclo[4.3.0]non-8-yl)-4-oxo-3-quinolinecarboxylic acid] | 0.125 (≈ 0.319 µM) | 0.125 (≈ 0.319 µM) | ≤ 0.015 | 0.06 (≈ 0.153 µM) | 2 (≈ 5.11 µM) | 0.06 (≈ 0.153 µM) | 4 (≈ 10.2 µM) | 0.03 (≈ 0.0767 µM) | 0.03 (≈ 0.0767 µM) | 0.03 (≈ 0.0767 µM) | – | – | – | – | –
CN1CCOC2CN(c3c(F)cc4c(=O)c(C(=O)O)cn(C5CC5)c4c3F)CC21 (stereo not shown) [Example 9, 1-cyclopropyl-6,8-difluoro-1,4-dihydro-7-(5-methyl-2-oxa-5,8-diazabicyclo[4.3.0]non-8-yl)-4-oxo-3-quinolinecarboxylic acid] | 0.25 (≈ 0.617 µM) | 0.25 (≈ 0.617 µM) | 0.25 (≈ 0.617 µM) | 0.5 (≈ 1.23 µM) | 8 (≈ 19.7 µM) | 0.5 (≈ 1.23 µM) | 32 (≈ 78.9 µM) | 0.06 (≈ 0.148 µM) | 0.06 (≈ 0.148 µM) | 0.06 (≈ 0.148 µM) | – | – | – | – | –

Now from value to compound, other results behind:

MIC [1, 7] [µg/mL] | MIC [2, 8] [µg/mL] | MIC (Escherichia coli Neumann) [µg/mL] | MIC (Morganella morganii 932) [µg/mL] | MIC (Proleus mirabilis 8223) [µg/mL] | MIC (Proleus vulgaris 1017) [µg/mL] | MIC [3] [µg/mL] | MIC [4, 9] [µg/mL] | MIC [5, 10] [µg/mL] | MIC [6, 11] [µg/mL] | SMILES | MIC ([1]; Enterococcus faecalis, 27101, 20 h) [µg/mL] | MIC ([2]; Enterococcus faecalis, 9790, 20 h) [µg/mL] | MIC ([4]; Staphylococcus aureus, 133, 20 h) [µg/mL] | MIC ([5]; Staphylococcus aureus, 1756, 20 h) [µg/mL] | MIC ([6]; Staphylococcus aureus, FK422, 20 h) [µg/mL]
0.125 | 0.125 | ≤ 0.015 | ≤ 0.015 | 1 | ≤ 0.015 | 1 | 0.06 | 0.06 | 0.06 | CO[C@@H]1CN(c2c(F)cc3c(=O)c(C(=O)O)cn(C4CC4)c3c2F)C[C@H]1N.Cl (relative stereo) [Example 1, 7-(trans-3-amino-4-methoxy-1-pyrrolidinyl)-1-cyclopropyl-6,8-difluoro-4-oxo-3-quinolinecarboxylic acid hydrochloride] | – | – | – | – | –
0.125 | 0.25 | ≤ 0.015 | 0.03 | 1 | ≤ 0.015 | 2 | 0.03 | 0.06 | 0.06 | CO[C@H]1CN(c2c(F)cc3c(=O)c(C(=O)O)cn(C4CC4)c3c2F)C[C@H]1N.Cl (relative stereo) [Example 3, 7-(cis-3-Amino-4-methoxy-1-pyrrolidinyl)-1-cyclopropyl-6,8-difluoro-4-oxo-3-quinolinecarboxylic acid hydrochloride] | – | – | – | – | –
0.06 | 0.06 | ≤ 0.015 | ≤ 0.015 | 0.5 | ≤ 0.015 | 0.5 | ≤ 0.015 | ≤ 0.015 | ≤ 0.016 | CO[C@H]1CN(c2c(F)cc3c(=O)c(C(=O)O)cn(C4CC4)c3c2Cl)C[C@H]1N.O=C(O)C(F)(F)F (relative stereo) [Example 4, 7-(cis-3-amino-4-methoxy-1-pyrrolidinyl)-8-chloro-1-cyclopropyl-6-fluoro-1,4-dihydro-4-oxo-3-quinolinecarboxylic acid trifluoroacetate] | – | – | – | – | –
0.25 | 0.25 | ≤ 0.015 | ≤ 0.015 | 2 | 0.03 | 4 | 0.125 | 0.125 | 0.125 | CO[C@H]1CN(c2cc3c(cc2F)c(=O)c(C(=O)O)cn3C2CC2)C[C@H]1N.Cl (relative stereo) [Example 5, 7-(cis-3-Amino-4-methoxy-1-pyrrolidinyl)-1-cyclopropyl-6-fluoro-1,4-dihydro-4-oxo-3-quinolinecarboxylic acid hydrochloride] | – | – | – | – | –
